Consider 28 compounds from patent US20220332701A1, “HETEROCYCLIC COMPOUNDS AS BCR-ABL INHIBITORS” (ASCENTAGE PHARMA (SUZHOU) CO., LTD., priority 2019, published 2022).

One assay deals with BaF3(T315I) (Homo sapiens, UniProt P00519, T315I, cells depend on it). As to the kind of experiment: WST (CCK-8) anti-proliferation assay, BaF3 T315I cells. Conditions: read-out: BaF3(T315I); anti-proliferative IC50, 72 h treatment, CCK-8, BaF3 T315I.
The target of a further assay is BaF3(WT) (Homo sapiens, UniProt P00519). Description: WST (CCK-8) anti-proliferation assay, BaF3 WT cells. Conditions: read-out: BaF3(WT); anti-proliferative IC50, 72 h treatment, CCK-8, BaF3 WT.

Each structure is given as a SMILES string.

Protocol for BaF3(T315I): (§1) The anti-proliferative effect of representative Compounds of the Disclosure was determined by a water-soluble tetrazolium (WST)-based assay using Cell Counting Kit-8 (CCK-8). Cells were seeded in 96-well plates and treated with different concentrations of test articles for 72 h. Each treatment was tested in triplicates. Briefly, a series of 9 concentrations were chosen for each test article and added at 100 μl/well into a 96-well plate. Each concentration was tested in triplicates. 100 μl of diluent was added into 3-6 wells in the same plate for cell control group, and another set of 3-6 wells was used as a blank control.
(§2) In each well, 100 μl of cell suspension (containing optimal cell numbers, which creates approximately 100% confluence of cells in control wells based on by the absorbance (OD) value) was dispensed into the same 96-well plate except for the blank well. The plate was then cultured at 37° C. in an incubator in an atmosphere with 5% CO2 for 72 h. At the end of treatments, 20 μl/well of CCK-8 reagent was directly added to each wells. The plate was then incubated at 37° C. in an incubator in an atmosphere with 5% CO2 for 2-4 hour.
(§3) The cells viability was calculated using the mean OD value of triplicated wells following the equation below: (OD sample−OD blank)/(OD cell control−OD blank)×100 IC50 values were calculated with Graphpad Prism 6.0 software using nonlinear regression (curve fitting) type data analysis.
Protocol for BaF3(WT): as §1, §2, §3

Take `CN1CCC2(CC1)C(=O)Nc1cc(C(=O)Nc3ccc(OC(F)(F)Cl)cc3)cc(-c3ccn[nH]3)c12` [V-10, N-(4-(chlorodifluoromethoxy)phenyl)-1′-methyl-2-oxo-4-(1H-pyrazol-5-yl)spiro[indoline-3,4′-piperidine]-6-carboxamide]: the figures for the GI50 on BaF3(T315I) and at BaF3(WT) were 921 nM and 110 nM, respectively. In the same order, the values of `CC(C)N1CC(CO)c2cc(C(=O)Nc3ccc(OC(F)(F)Cl)cc3)cc(-c3ccn[nH]3)c21` (stereo not shown) [VII-43, N-(4-(chlorodifluoromethoxy)phenyl)-3-(hydroxymethyl)-1-isopropyl-7-(1H-pyrazol-5-yl)indoline-5-carboxamide] are 332 nM and 16 nM. In the same order, the values of `CN1CCc2cc(C(=O)Nc3ccc(OC(F)(F)Cl)cc3)cc(-c3ccn[nH]3)c21` [VII-7, N-(4-(chlorodifluoromethoxy)phenyl)-1-methyl-7-(1H-pyrazol-5-yl)indoline-5-carboxamide] are 144 nM and 113 nM.

`Cc1ccc(-c2cc(C(=O)Nc3ccc(OC(F)(F)Cl)cc3)cc3c2C(C)(C)N(C)C3=O)o1` [IV-2, N-(4-(chlorodifluoromethoxy)phenyl)-1,1,2-trimethyl-7-(5-methylfuran-2-yl)-3-oxoisoindoline-5-carboxamide]: the figures for the GI50 on BaF3(T315I) and at BaF3(WT) were 3340 nM and 399 nM, respectively. In the same order, the values of `O=C(Nc1ccc(OC(F)(F)Cl)cc1)c1cc2c(c(-c3ccn[nH]3)c1)N(C1CCCC1)CC2` [VII-2, N-(4-(chlorodifluoromethoxy)phenyl)-1-cyclopentyl-7-(1H-pyrazol-5-yl) indoline-5-carboxamide] are 272 nM and 29 nM.

Regarding `CC(C)n1ccc2cc(C(=O)Nc3ccc(OC(F)(F)Cl)cc3)cc(-c3ccn[nH]3)c21` [XII-1, N-(4-(chlorodifluoromethoxy)phenyl)-1-isopropyl-7-(1H-pyrazol-5-yl)-1H-indole-5-carboxamide], the GI50 was found to be 654 nM on BaF3(T315I) and 115 nM at BaF3(WT). In the same order, the values of `CC(=O)N1CC(C)(C)c2c(-c3ccn[nH]3)cc(C(=O)Nc3ccc(OC(F)(F)Cl)cc3)cc21` [III-4, 1-acetyl-N-(4-(chlorodifluoromethoxy)phenyl)-3,3-dimethyl-4-(1H-pyrazol-5-yl)indoline-6-carboxamide] are 176 nM and 22 nM.

In the case of `CCC1c2cc(C(=O)Nc3ccc(OC(F)(F)Cl)cc3)cc(-c3ccn[nH]3)c2N(C(C)C)C1CO` (stereo not shown) [VII-20, N-(4-(chlorodifluoromethoxy)phenyl)-3-ethyl-2-(hydroxymethyl)-1-isopropyl-7-(1H-pyrazol-5-yl)indoline-5-carboxamide], the GI50 at BaF3(T315I) was 2180 nM; on BaF3(WT) it was 165 nM. With `CC(C)n1cc(CO)c2cc(C(=O)Nc3ccc(OC(F)(F)Cl)cc3)cc(-c3ccn[nH]3)c21` [XII-8, N-(4-(chlorodifluoromethoxy)phenyl)-3-(hydroxymethyl)-1-isopropyl-7-(1H-pyrazol-5-yl)-1H-indole-5-carboxamide], the GI50 is 344 nM at BaF3(T315I) and 57 nM at BaF3(WT).

For the compound `CC(C)N1c2c(cc(C(=O)Nc3ccc(OC(F)(F)Cl)cc3)cc2-c2ccn[nH]2)CC1CC(=O)N(C)C` (stereo not shown) [VII-36, N-(4-(chlorodifluoromethoxy)phenyl)-2-(2-(dimethylamino)-2-oxoethyl)-1-isopropyl-7-(1H-pyrazol-5-yl)indoline-5-carboxamide], the GI50 stood at 1740 nM on BaF3(T315I) and 231 nM at BaF3(WT). For `O=C(Nc1ccc(OC(F)(F)Cl)cc1)c1cc2c(c(-c3ccn[nH]3)c1)N(C1CC(CCl)C1)CC2` (stereo not shown) [VII-11, N-(4-(chlorodifluoromethoxy)phenyl)-1-(3-(chloromethyl)cyclobutyl)-7-(1H-pyrazol-3-yl)indoline-5-carboxamide], in that order: 946 nM and 29 nM. Turning to `CC1c2cc(C(=O)Nc3ccc(OC(F)(F)Cl)cc3)cc(-c3ccn[nH]3)c2N(C(C)C)C1CO` (stereo not shown) [VII-19, N-(4-(chlorodifluoromethoxy)phenyl)-2-(hydroxymethyl)-1-isopropyl-3-methyl-7-(1H-pyrazol-5-yl)indoline-5-carboxamide], the GI50 on BaF3(T315I) is 1090 nM; on BaF3(WT) it was 133 nM. For `CC(C)N1CCOc2cc(C(=O)Nc3ccc(OC(F)(F)Cl)cc3)cc(-c3ccn[nH]3)c21` [IX-3, N-(4-(chlorodifluoromethoxy)phenyl)-4-isopropyl-5-(1H-pyrazol-5-yl)-3,4-dihydro-2H-benzo[b][1,4] oxazine-7-carboxamide], in that order: 535 nM and 80 nM. Turning to `CC(C)C(=O)N1CCc2cc(C(=O)Nc3ccc(OC(F)(F)Cl)cc3)cc(-c3ccn[nH]3)c21` [VII-10, N-(4-(chlorodifluoromethoxy)phenyl)-1-isobutyryl-7-(1H-pyrazol-5-yl) indoline-5-carboxamide], the results for the GI50 at BaF3(T315I) and on BaF3(WT) were 3840 nM and 1160 nM, respectively. With `CC(C)N1c2c(cc(C(=O)Nc3ccc(OC(F)(F)Cl)cc3)cc2-c2ccn[nH]2)CC1C(=O)N(C)C` (stereo not shown) [VII-26, N5-(4-(chlorodifluoromethoxy)phenyl)-1-isopropyl-N2,N2-dimethyl-7-(1H-pyrazol-5-yl)indoline-2,5-dicarboxamide], the GI50 on BaF3(T315I) came out at 199 nM; on BaF3(WT), 39 nM. Consider `Cc1ccc(-c2cc(C(=O)Nc3ccc(OC(F)(F)Cl)cc3)cc3c2C(C)(C)N(C)C3=O)s1` [IV-3, N-(4-(chlorodifluoromethoxy)phenyl)-1,1,2-trimethyl-7-(5-methylthiophen-2-yl)-3-oxoisoindoline-5-carboxamide], for which the figures for the GI50 on BaF3(T315I) and on BaF3(WT) were 2380 nM and 132 nM, respectively. For `CC(C)N1CC(C)(CO)c2cc(C(=O)Nc3ccc(OC(F)(F)Cl)cc3)cc(-c3ccn[nH]3)c21` (stereo not shown) [VII-41, N-(4-(chlorodifluoromethoxy)phenyl)-3-(hydroxymethyl)-1-isopropyl-3-methyl-7-(1H-pyrazol-5-yl)indoline-5-carboxamide], in that order: 168 nM and 46 nM. For `CC(C)N1c2c(cc(C(=O)Nc3ccc(OC(F)(F)Cl)cc3)cc2-c2ccn[nH]2)CC1C(=O)N1CCOCC1` (stereo not shown) [VII-25, N-(4-(chlorodifluoromethoxy)phenyl)-1-isopropyl-2-(morpholine-4-carbonyl)-7-(1H-pyrazol-5-yl)indoline-5-carboxamide], in that order: 243 nM and 58 nM.

On to `CC(C)N1CCc2cc(C(=O)Nc3ccc(OC(F)(F)Cl)cc3)cc(-c3ccn[nH]3)c21` [VII-1, N-(4-(chlorodifluoromethoxy)phenyl)-1-isopropyl-7-(1H-pyrazol-5-yl)indoline-5-carboxamide], for which the GI50 was 91 nM on BaF3(T315I) and 26 nM on BaF3(WT). For `O=C(Nc1ccc(OC(F)(F)Cl)cc1)c1cc2c(c(-c3ccn[nH]3)c1)N(C1CC(CO)C1)CC2` (stereo not shown) [VII-12, N-(4-(chlorodifluoromethoxy)phenyl)-1-(3-(hydroxymethyl)cyclobutyl)-7-(1H-pyrazol-3-yl)indoline-5-carboxamide], the GI50 at BaF3(T315I) is 123 nM; at BaF3(WT) it was 112 nM.

In the case of `CN1CCCc2cc(C(=O)Nc3ccc(OC(F)(F)Cl)cc3)cc(-c3ccn[nH]3)c21` [IX-2, N-(4-(chlorodifluoromethoxy)phenyl)-1-methyl-8-(1H-pyrazol-5-yl)-1,2,3,4-tetrahydroquinoline-6-carboxamide], the GI50 on BaF3(T315I) came out at 332 nM; at BaF3(WT), 162 nM. For the compound `Cc1cn(C(C)C)c2c(-c3ccn[nH]3)cc(C(=O)Nc3ccc(OC(F)(F)Cl)cc3)cc12` [XII-6, N-(4-(chlorodifluoromethoxy)phenyl)-1-isopropyl-3-methyl-7-(1H-pyrazol-5-yl)-1H-indole-5-carboxamide], the values for the GI50 on BaF3(T315I) and on BaF3(WT) were 511 nM and 22 nM, respectively. For `O=C(Nc1ccc(OC(F)(F)Cl)cc1)c1cc2c(c(-c3ccn[nH]3)c1)N(CCO)CC2` [VII-6, N-(4-(chlorodifluoromethoxy)phenyl)-1-(2-hydroxyethyl)-7-(1H-pyrazol-5-yl) indoline-5-carboxamide], in that order: 250 nM and 112 nM. Consider `CC(C)N1c2c(cc(C(=O)Nc3ccc(OC(F)(F)Cl)cc3)cc2-c2ccn[nH]2)CC1CN(C)C` (stereo not shown) [VII-13, N-(4-(chlorodifluoromethoxy)phenyl)-2-((dimethylamino)methyl)-1-isopropyl-7-(1H-pyrazol-5-yl)indoline-5-carboxamide], for which the GI50 at BaF3(T315I) worked out at 1410 nM; at BaF3(WT), 266 nM. For `CC(C)N1c2c(cc(C(=O)Nc3ccc(OC(F)(F)Cl)cc3)cc2-c2ccn[nH]2)CC1C(=O)N1CC[C@@H](O)C1` (stereo partly drawn) [VII-29, N-(4-(chlorodifluoromethoxy)phenyl)-2-((R)-3-hydroxypyrrolidine-1-carbonyl)-1-isopropyl-7-(1H-pyrazol-5-yl)indoline-5-carboxamide], in that order: 940 nM and 113 nM. Consider `O=C(Nc1ccc(OC(F)(F)Cl)cc1)c1cc2c(c(-c3ccn[nH]3)c1)N(C1CCC1)CC2` [VII-8, N-(4-(chlorodifluoromethoxy)phenyl)-1-cyclobutyl-7-(1H-pyrazol-5-yl) indoline-5-carboxamide], for which the results for the GI50 on BaF3(T315I) and at BaF3(WT) were 468 nM and 23 nM, respectively. For `CC(C)N1c2c(cc(C(=O)Nc3ccc(OC(F)(F)Cl)cc3)cc2-c2cncnc2)CC1C(=O)N1CCOCC1` (stereo not shown) [VII-23, N-(4-(chlorodifluoromethoxy)phenyl)-1-isopropyl-2-(morpholine-4-carbonyl)-7-(pyrimidin-5-yl)indoline-5-carboxamide], in that order: 146 nM and 17 nM.

For the compound `CN1CCC2(C1)C(=O)Nc1cc(C(=O)Nc3ccc(OC(F)(F)Cl)cc3)cc(-c3cc[nH]n3)c12` (stereo not shown) [V-8, N-(4-(chlorodifluoromethoxy)phenyl)-1′-methyl-2-oxo-4-(1H-pyrazol-3-yl)spiro[indoline-3,3′-pyrrolidine]-6-carboxamide], the GI50 on BaF3(WT) turned out to be 1550 nM.
